Assay results reported in patent US10525026B2, “Intravenous administration of citrulline during surgery” (Vanderbilt University, priority 2015, dated 2020).

Assays:
[1] = Perioperative oral citrulline supplementation in children undergoing congenital cardiac surgery; format: in vivo
Experimental: 40 patients with one of the 5 surgical diagnoses identified above were randomized to receive 5 doses of oral citrulline (1.9 grams/kg) vs. placebo. The first dose was administered immediately prior to surgery and the second dose immediately on arrival in the Pediatric ICU after surgery followed every 12 hours×3 doses.

[2] = Revised dosing protocol for cardiac surgery, 22 patients randomized to placebo and citrulline; format: in vivo, children
Source text: The study in this example was undertaken to test a revised dosing protocol designed to achieve and maintain therapeutic citrulline levels in the face of ultrafiltration and crystalloid replacement. […] The study recruited 22 patients randomized in equal numbers of 11 patients each to placebo and citrulline arms. Early in the course of the study, it was recognized that one of the two participating centers routinely extubated all patients in the operating room immediately following cessation of cardiopulmonary bypass. This precluded use of the duration of mechanical ventilation as an endpoint. Instead, a post-hoc analysis was applied using the duration of all forms of ventilatory support as a possible endpoint. […] In contrast, contingency table analysis, shown in Table 5, did achieve borderline significance. Overall, the results are considered to represent a strong trend.

[3] = Intravenous citrulline in piglets: safety and effect on serum arginine levels; format: in vivo, Duroc swine; details: 600 mg/kg IV
Experimental: The objective was to assess the safety of intravenous citrulline and its effect on serum arginine levels in piglets. A total of 9 Duroc swine, aged 5-21 days, with a target minimum weight of 4 kg were utilized. All piglets underwent anesthetic induction and tracheostomy. Central lines were placed in the femoral artery and femoral vein and hemodynamics monitored continuously. Citrulline (600 mg/kg IV) was administered to 5 piglets. Saline was given to control animals. Serum amino acids were drawn before and each hour after citrulline administration.

[4] = Phase IB single-blind, randomized, placebo controlled PK and safety study of IV L-citrulline in children and infants undergoing CPB; format: in vivo
Experimental: A multicenter, Phase IB single-blind, randomized, placebo controlled study was conducted to determine the pharmacokinetics (PK) and safety of IV L-citrulline administration to children and infants undergoing cardiopulmonary bypass (CPB) for surgical repair of congenital heart defects.
The primary objective of the study was to determine if a revised protocol of intravenous (IV) L-citrulline delivery given peri-operatively achieved a plasma citrulline level of >100 μmol/L in the group given citrulline and to compare that to citrulline levels in the placebo group, during follow-up in children undergoing surgical repair of an atrial septal defect (ASD) and/or a ventricular septal defect (VSD) or a partial or complete atrioventricular septal defect (AVSD).
Twenty two (22) patients were enrolled and treated. The patients received study drug or placebo infusion according to a fixed dosing protocol starting at the initiation of CPB until 48 hours postoperatively or until removal of the arterial line. Study participation ended at discharge or at Day 28 whichever came first. The dosing regimen was designed to maintain plasma citrulline levels in the face of extended hemofiltration.
Plasma citrulline concentration levels were the primary PK variable; these were assessed in blood samples collected at 7 perioperative time points. Secondary PK variables were concentrations of arginine and nitric oxide (NO) metabolites in the same sample set. PK values were compared between groups.
Subjects received an IV citrulline bolus of 150 mg/kg or placebo at the initiation of CPB, followed by the addition of L-citrulline at a concentration of 200 μmol/L or placebo to the filtration or hemoconcentration replacement fluid used during CPB. A citrulline bolus of 20 mg/kg was administered 30 minutes after decannulation from CPB, immediately followed by a 9-mg/kg/hr continuous infusion of citrulline or placebo for 48 hours.
Primary safety assessments included hemodynamic monitoring to identify clinically significant hypotension using age-specific limits. Adverse event information was collected, and postoperative bleeding was recorded.
Further safety, laboratory, and clinical assessments were performed from baseline to discharge, secondary clinical variables included: postoperative mechanical ventilation, duration of total respiratory support, hemodynamic improvement, postoperative PVT by echocardiogram, serum creatinine and liver enzymes, inotrope score, duration of chest tube usage, length of intensive care unit stay, length of hospitalization and survival.
The duration of postoperative invasive mechanical ventilation was derived as the time in hours from separation from cardiopulmonary bypass until endotracheal extubation. If a patient required reintubation within 24 hours after extubation, the reintubation time was added in the main analysis. In a second analysis, the reintubation time was not included.

[5] = Randomized, placebo controlled, double blind intravenous citrulline study (77 patients); format: in vivo, children; details: bolus plus infusion protocol, hemofiltration during CPB
Source text: An intravenous citrulline study conducted was a randomized, placebo controlled, double blind study with the primary clinical outcome being length of mechanical ventilation postoperatively and secondarily the incidence of postoperative pulmonary hypertension between the 2 treatment groups (citrulline vs placebo).
A total of 77 patients were enrolled at Vanderbilt Children's Hospital. Patients were screened based on the surgical schedule. Based on this schedule, patients undergoing one of the 5 planned cardiac surgeries included in this study were screened (patients undergoing the Norwood procedure are now excluded at the recommendation of the DSMB).
The study was stopped in preparation for a larger multicenter randomized placebo controlled trial. […] These hemofiltration techniques had changed during the study, and the investigators were not aware of these changes.

[6] = Perioperative intravenous L-citrulline pharmacokinetics, single bolus dose escalation in children undergoing congenital cardiac surgery; format: in vivo
Experimental: To determine clearance of a single bolus dose of IV citrulline and optimal dose frequency, a dose escalation design using three concentrations of IV citrulline: 50, 100, & 150 mg/kg was utilized. The dose of citrulline was given in the operating room immediately after cannulation and initiation of cardiopulmonary bypass. The overall goal was to achieve a sustained citrulline level of 100 μmol/L or more up to four hours after the initial dose. The four hour time point was selected to allow for the surgical procedure to be completed and the patient to return to the ICU postoperatively before further dosing.
Patients were then enrolled using this revised protocol of a combination of a bolus dose of 150 mg/kg in the OR on CPB and a continuous infusion of 9 mg/kg/hr started postop in the PICU at 4 hours after the initial bolus dose.

[7] = Safety and pharmacokinetics of intravenous citrulline, open label dose escalation in children undergoing repair of congenital heart defects; format: in vivo; details: for concentration at 4 h: read-out: 4 hour trough citrulline level
Experimental: The initial goal was to test the safety and pharmacokinetics of three doses of intravenous citrulline in children undergoing surgical repair of specific congenital heart defects. […] An adverse drop in mean arterial pressure was defined as a greater than a twenty percent decrease from baseline. The baseline postoperative mean arterial blood pressure was calculated as the average of mean arterial blood pressure measurements collected every 5 minutes for the 30 minutes immediately preceding the administration of the postoperative dose or infusion.
The original doses selected were 200, 400, and 600 mg/kg based on data from previous animal studies. The original study design was a 4 arm study using the 3 doses and a placebo control.
After pharmacokinetic modeling, the study design was changed to a bolus dose of 150 mg/kg given in the OR on cardiopulmonary bypass followed 4 hours later by a continuous infusion of 9 mg/kg/hour for 48 hours. Another 9 patients were enrolled. The mean plasma levels of both citrulline and arginine in study patients (+IV citrulline) compared to patients in the observational cohort (−IV citrulline) are depicted in FIGS. 11A-B.

[8] = revised dosing protocol, contingency table, 11 patients per arm
[9] = bolus 150 mg/kg at beginning of surgery, 4 hours later continuous infusion 9 mg/kg/hr
[10] = original doses 200, 400, and 600 mg/kg intravenous, five patients

NC(=O)NCCCC(N)C(=O)O (stereo not drawn) [citrulline, 2-amino-5-(carbamoylamino)pentanoic acid]
Tolerability / adverse events of oral citrulline ([1]; 1.9 g/kg before CPB, postoperatively and every 12 hours for 48 hours): well tolerated with no evidence of significant adverse events | Plasma citrulline levels ([1]; 5 doses of 1.9 grams/kg, vs. placebo 26, p=0.013): 36 µmol/L | Systolic and diastolic blood pressure versus placebo ([2]; FIG. 18A): No significant change in systolic and diastolic blood pressure | Mean arterial pressure versus placebo ([2]; FIG. 18B): No significant change in the mean arterial pressure | Inotrope scores versus placebo ([2]; particularly from 15 to 18 hours onward following ICU admission): markedly better inotrope scores | Adverse effects upon hemodynamic parameters ([2]; revised dosing protocol): No adverse effects upon hemodynamic parameters were observed | Number of patients with Duration of Respiratory Support >50 hours [2, 8]: 2 | Number of patients with Duration of Respiratory Support ≤50 hours [2, 8]: 7 | Hemodynamic instability [3]: No hemodynamic instability was observed | Time of peak serum arginine levels following intravenous citrulline administration [3]: 1 to 2 h | Arginine Levels Following intravenous citrulline ([3]; 1 hour post): 535.0 µmol/L | Mean Arterial Blood Pressures Following intravenous Citrulline ([3]; 1 hour post): 67.4 mmHg | Arginine Levels Following intravenous citrulline ([3]; 2 hours post): 559.8 µmol/L | Mean Arterial Blood Pressures Following intravenous Citrulline ([3]; 2 hours post): 64.8 mmHg | Arginine Levels Following intravenous citrulline ([3]; 3 hours post): 498.4 µmol/L | Mean Arterial Blood Pressures Following intravenous Citrulline ([3]; 3 hours post): 62.2 mmHg | Arginine Levels Following intravenous citrulline ([3]; Baseline): 131.5 µmol/L | Mean Arterial Blood Pressures Following intravenous Citrulline ([3]; Pre-dose): 67.0 mmHg | Plasma citrulline levels ([4]; bolus 150 mg/kg, 200 μmol/L in filtration fluid, bolus 20 mg/kg, infusion 9 mg/kg/hr for 48 hours): > 100 µmol/L | Sustained plasma citrulline levels ([4]; bolus 150 mg/kg, 200 μmol/L in priming and hemofiltration fluid, bolus 20 mg/kg, infusion 9 mg/kg/hr for 48 hours): around 100 μmol/L | Duration of invasive mechanical ventilation, Kaplan-Meier analysis versus placebo ([4]; excluding re-intubation, Wilcoxon p=0.0222, ANOVA t-test p=0.0317): reduced duration of mechanical ventilation | Mean duration of invasive mechanical ventilation ([4]; including the reintubation time, placebo 37 hours): 5 h | Composite durations of mechanical ventilation and inotrope therapy versus placebo ([4]; longer of the two durations, surrogate for ICU stay): shorter composite durations of mechanical ventilation and inotrope therapy | Patients extubated in the operating room ([4]; one site, 6 patients per group, placebo 33%): 100% | Reaching the sustained target plasma citrulline level of 100 μmol/L [5]: a majority who received citrulline did not reach the therapeutic sustained target plasma citrulline level | Adverse effects including hypotension ([6]; IV bolus 50, 100, 150 mg/kg): no adverse effects including hypotension | ½ life of the bolus doses ([6]; IV bolus 50, 100, 150 mg/kg): 60 to 90 min | concentration at 4 h ([6]; human, plasma, 150 mg/kg IV bolus after initiation of CPB, read-out: Four hour citrulline levels): ~100 µM | Adverse side effects ([7]; 50 mg/kg intravenous): No adverse side effects were noted | Peak citrulline level ([7]; 50 mg/kg intravenous, patients 6 and 8): approximately 220 μmol/L | Adverse side effects ([7]; 100 mg/kg intravenous): no adverse side effects were noted | Peak citrulline level ([7]; 100 mg/kg intravenous, patients 9 & 10): 375 µmol/L | Peak citrulline level ([7]; 150 mg/kg intravenous, patients 13-16): 660 µmol/L | Adverse side effects [7, 9]: No adverse side effects were noted | Sustained plasma citrulline levels [7, 9]: around 100 μmol/L | Significant adverse events ([7]; bolus 150 mg/kg on CPB, 4 hours later infusion 9 mg/kg/hour for 48 hours): one significant adverse event but it was not related to the use of IV citrulline | concentration at 4 h ([7]; human, plasma, 50 mg/kg intravenous, patients 6 and 8): 40 µM | concentration at 4 h ([7]; human, plasma, 100 mg/kg intravenous, patients 9 & 10): 50 µM | concentration at 4 h ([7]; human, plasma, 150 mg/kg intravenous, patients 13-16): 80 µM | half-life ([7]; human, plasma, intravenous bolus 50, 100, 150 mg/kg): ~1.42 h | Adverse effects [7, 10]: no adverse effects were noted | Plasma levels achieved [7, 10]: very high
